The text below walks through data of US20130165471A1, “2-SUBSTITUTED-THIENOQUINOLONES AND RELATED COMPOUNDS AS ANTI-INFECTIVE AGENTS” (Achillion Pharmaceuticals Inc., priority 2011, published 2013).

SMILES strings stand for the structures. In brackets after ≈: the same amount, converted by molar mass.

For one data set, the system named is S. aureus ATCC 29213. The data set is described as follows: Minimum inhibitory concentration (MIC) assay, MSSA. The format is cell-based. To be noted: Staphylococcus aureus, broth microdilution. The method, then:
(§1) The preparation of compounds listed in Table I can be carried out under conditions analogous to those described in the examples above. Those of skill in the art will recognize routine changes in reaction conditions and starting materials needed to produce the listed compounds. For example, compound 5 in Table I, is prepared by the method shown above, except tert-butyl (1-(pyrrolidin-3-yl)ethyl)carbamate, prepared by the method shown in Schoeder, et al., J. Heterocyclic Chem., 29: 1481-1498 (1992), is used as the amine starting material. Compound activity was evaluated in a standard minimal inhibitory concentration assay such as the assay provided in Example 4. Compound cytotoxicity is determined using a standard assay of cytotoxicity such as the assay provided in Example 5. Compounds 10, 14, and 20 of Table I are provided as comparative examples.
(§2) The antimicrobial activity of the compounds of the invention may be evaluated by a number of methods, including the following visual minimum inhibitory concentration (MIC) assay. This assay determines the minimum concentration of compound required to inhibit growth of a bacterial strain.
(§3) Whole-cell antibacterial activity is determined by broth microdilution using conditions recommended by the NCCLS (see National Committee for Clinical Laboratory Standards. 2001. Performance standards for antimicrobial susceptibility testing: 11th informational supplement. Vol. 21, no. 1, M100-S11. National Committee for Clinical Laboratory Standards, Wayne, Pa.). Test compounds are dissolved in DMSO and diluted 1:50 in Mueller-Hinton II broth (Becton-Dickinson) to produce a 256 μg/ml stock solution. In a 96-well microtiter plate, the compound solution is serially two-fold diluted in Mueller-Hinton II broth. After the compounds are diluted, a 50 μl aliquot of the test organism (˜1×10^6 cfu/mL) is added to each well of the microtiter plate. The final test concentrations range from 0.125-128 μg/mL. Inoculated plates are incubated in ambient air at 37° C. for 18 to 24 hours. The organisms selected for testing included laboratory strains S. aureus ATCC 29213 and E. coli ATCC 25922 (strains purchased from American Type Culture Collection, Manassas, Va.) m, S. aureus FQR700699, and Paeruginosa 27853. The minimum inhibitory concentration (MIC) is determined as the lowest concentration of compound that inhibited visible growth of the test organism.

The test system of data set [1] is fluoroquinolone-resistant S. aureus ATCC 700699. In words: Minimum inhibitory concentration (MIC) assay, MRSA. The format is cell-based. To be noted: Staphylococcus aureus, broth microdilution. The method, then: as §1, §2, §3
The subject of the next data set is Hep2. The data set is described as follows: Cytotoxicity, cell viability staining with Alamar Blue. The format is cell-based, human. The arrangement: unit not given here. To be noted: Hep2 cells. The method, then: as §1
To determine whether the microcidal effect observed against S. aureus and E. coli is specific to bacterial cells, compounds are screened for cell viability effects on several human cell types.
Optimal cell density is first determined by plating cells in a 96-well plate standard sterile tissue culture plates in 100 μl media, 10% FBS at six cell densities from 500 cells/well to 15,000 cells/well. A cell free well containing only media is used as a control. Cells are incubated at 37° C. in a 5% CO2 incubator for 24 hours. 10% culture volume (10 ul) of Alamar Blue (Biosource, DAL1100, 100 mL) is then added. Cells are incubated at 37° C. in a 5% CO2 incubator and read in a Victor V plate reader, 544 nm excitation, 590 nm emission, at 3, 4, and 24 hours after the addition of Alamar Blue. The cell number vs. change in fluorescence is plotted to determine linearity of signal vs. cell number. The optimal density varies between 500-15,000 cells/well depending on the specific cell type. The optimal density is selected based on the highest number of cells that is still in the linear response range.
Cells are plated at optimal cell density in a standard sterile tissue culture 96 well plate, and incubated at 37° C., O/N in a 5% CO2 incubator. 12 to 48 hours post-plating media is removed. The cells are washed 1 or 2 times with 1×PBS and replaced with fresh media containing the test compound in 1% DMSO. 24 to 72 hours after addition of compound, the media is removed, and the cells washed 1 to 2 times with 1×PBS. Fresh media containing 1/10 volume of Alamar Blue is then added. Plates are incubated 4 hours at 37° C. in a 5% CO2 incubator and read in a Victor V plate reader, 544 nm excitation, 590 nm emission.
Compounds are diluted to 20 micromolar in 1% DMSO and media and screened in duplicate to obtain single concentration cytotoxicity data. Eight concentration points from 0.78 micromolar to 100 micromolar, run in duplicate, are used to determine cytotoxicity CC50 values. Cells with 1% DMSO and media are used as a negative control, compounds having a known CC50 against a particular cell type are used as positive controls.
The change in fluorescence vs. concentration of test compound is plotted to determine the cytotoxicity of the compound.

As to `COc1c(N2CC[C@@H](CNC(C)=O)C2)c(F)cc2c(=O)c3c(n(C4CC4)c12)SCC3=O` [Compound 14, (S)-N-((1-(9-cyclopropyl-6-fluoro-8-methoxy-3,4-dioxo-2,3,4,9-tetrahydrothieno [2,3-b]quinolin-7-yl)pyrrolidin-3-yl)methyl) acetamide], the MIC against S. aureus ATCC 29213 was 32 µg/mL (≈ 71.8 µM); in data set [1], > 64 µg/mL.
For `COc1c(N2CC[C@@H]([C@@H](C)N)C2)c(F)cc2c(=O)c3c(O)c(C(C)=O)sc3n(C3CC3)c12` [Compound 21, 2-acetyl-7-((R)-3-((R)-1-aminoethyl)pyrrolidin-1-yl)-9-cyclopropyl-6-fluoro-3-hydroxy-8-methoxythieno[2,3-b] quinolin-4(9H)-one] the same measures were 0.13 µg/mL (≈ 0.283 µM) and 1 µg/mL (≈ 2.18 µM).
Take `COc1c(N2CC[C@H](N)C2)c(F)cc2c(=O)c3c(O)c(C(C)=O)sc3n(C3CC3)c12` [Compound 7, (S)-2-acetyl-7-(3-aminopyrrolidin-1-yl)-9-cyclopropyl-6-fluoro-3-hydroxy-8-methoxythieno [2,3-b]quinolin-4(9H)-one]: the MIC against S. aureus ATCC 29213 was determined as 0.13 µg/mL (≈ 0.301 µM); in data set [1] it was 0.25 µg/mL (≈ 0.579 µM). Also, in the data set with Hep2, the “Cytotoxicity Hep2” value is reported as 35.
Consider `COc1c(N2CC[C@@H]([C@H](C)NC(=O)OC(C)(C)C)C2)c(F)cc2c(=O)c3c(O)c(C(C)=O)sc3n(C3CC3)c12` [Compound 22, tert-butyl ((S)-1-((R)-1-(2-acetyl-9-cyclopropyl-6-fluoro-3-hydroxy-8-methoxy-4-oxo-4,9-dihydrothieno[2,3-b]quinolin-7-yl)pyrrolidin-3-yl)ethyl)carbamate], for which the MIC (with S. aureus ATCC 29213; in data set [1]) was > 64 µg/mL each time.
Take `COc1c(N2CC[C@@H]([C@H](C)N)C2)c(F)cc2c(=O)c3c(O)c(C(C)=O)sc3n(C3CC3)c12` [Compound 8, 2-acetyl-7-((R)-3-((S)-1-aminoethyl)pyrrolidin-1-yl)-9-cyclopropyl-6-fluoro-3-hydroxy-8-methoxythieno [2,3-b]quinolin-4(9H)-one]: the MIC against S. aureus ATCC 29213 was determined as 0.03 µg/mL (≈ 0.0653 µM); in data set [1] it was 0.13 µg/mL (≈ 0.283 µM). Besides, in the data set on Hep2, the “Cytotoxicity Hep2” value came out at 9.
For the compound `COc1c(N2CC[C@H](CN)C2)c(F)cc2c(=O)c3c(O)c(C(C)=O)sc3n(C3CC3)c12` [Compound 13, (R)-2-acetyl-7-(3-(aminomethyl)pyrrolidin-1-yl)-9-cyclopropyl-6-fluoro-3-hydroxy-8-methoxythieno[2,3-b] quinolin-4(9H)-one], the MIC against S. aureus ATCC 29213 stood at 0.13 µg/mL (≈ 0.292 µM); in data set [1], 0.25 µg/mL (≈ 0.561 µM).
As to `COc1c(N2CC[C@@H](CNC(C)=O)C2)c(F)cc2c(=O)c3c(O)c(C(C)=O)sc3n(C3CC3)c12` [Compound 11, (S)-N-((1-(2-acetyl-9-cyclopropyl-6-fluoro-3-hydroxy-8-methoxy-4-oxo-4,9-dihydrothieno [2,3-b]quinolin-7-yl)pyrrolidin-3-yl)methyl) acetamide], the results for the MIC (with S. aureus ATCC 29213; in data set [1]) were 0.13 µg/mL (≈ 0.267 µM) and 0.5 µg/mL (≈ 1.03 µM), respectively. In the data set with Hep2, the “Cytotoxicity Hep2” value worked out at 60.
On the same counts, the results for `COc1c(N2CCCC(CN)C2)c(F)cc2c(=O)c3c(O)c(C(N)=O)sc3n(C3CC3)c12` (stereo not drawn) [Compound 5, 7-(3-(aminomethyl)piperidin-1-yl)-9-cyclopropyl-6-fluoro-3-hydroxy-8-methoxy-4-oxo-4,9-dihydrothieno[2,3-b]quinoline-2-carboxamide] are 0.5 µg/mL (≈ 1.09 µM), 2 µg/mL (≈ 4.34 µM) and 30.
As for `COc1c(N2CC[C@H](NC(C)=O)C2)c(F)cc2c(=O)c3c(O)c(C(C)=O)sc3n(C3CC3)c12` [Compound 18, (S)-N-(1-(2-acetyl-9-cyclopropyl-6-fluoro-3-hydroxy-8-methoxy-4-oxo-4,9-dihydrothieno [2,3-b]quinolin-7-yl)pyrrolidin-3-yl)acetamide], the results for the MIC (in the data set on S. aureus ATCC 29213; in data set [1]) were 0.25 µg/mL (≈ 0.528 µM) and 1 µg/mL (≈ 2.11 µM), respectively.
For `COc1c(N2CC[C@@H](CNC(=O)CN)C2)c(F)cc2c(=O)c3c(O)c(C(C)=O)sc3n(C3CC3)c12` [Compound 15, (S)-N-((1-(2-acetyl-9-cyclopropyl-6-fluoro-3-hydroxy-8-methoxy-4-oxo-4,9-dihydrothieno [2,3-b]quinolin-7-yl)pyrrolidin-3-yl)methyl)-2-aminoacetamide] the same measures were 0.5 µg/mL (≈ 0.995 µM) and 1 µg/mL (≈ 1.99 µM).
In the case of `COc1c(N2CC[C@@H](CN)C2)c(F)cc2c(=O)c3c(O)csc3n(C3CC3)c12` [Compound 10, (S)-7-(3-(aminomethyl)pyrrolidin-1-yl)-9-cyclopropyl-6-fluoro-3-hydroxy-8-methoxythieno[2,3-b] quinolin-4(9H)-one], the MIC with S. aureus ATCC 29213 was 4 µg/mL (≈ 9.91 µM). For the same compound, the “Cytotoxicity Hep2” value in the data set with Hep2 was found to be 24.
On to `COc1c(N2CC[C@@H](CNS(=O)(=O)c3cc(F)ccc3C)C2)c(F)cc2c(=O)c3c(OS(=O)(=O)c4cc(F)ccc4C)c(C(C)=O)sc3n(C3CC3)c12` [Compound 17, (R)-2-acetyl--cyclopropyl-6-fluoro-7-(3-((5-fluoro-2-methylphenylsulfonamido)methyl)pyrrolidin-1-yl)-8-methoxy-4-oxo-4,9-dihydrothieno[2,3-b] quinolin-3-yl 5-fluoro-2-methylbenzenesulfonate], for which the MIC (against S. aureus ATCC 29213; in data set [1]) was > 64 µg/mL in each case.
Turning to `COc1c(N2CC[C@@H]([C@H](C)N)C2)c(F)cc2c(=O)c3c(n(C4CC4)c12)SCC3=O` [Compound 20, 7-((R)-3-((S)-1-aminoethyl)pyrrolidin-1-yl)-9-cyclopropyl-6-fluoro-8-methoxythieno[2,3-b] quinoline-3,4(2H,9H)-dione], the values for the minimum inhibitory concentration (MIC) (against S. aureus ATCC 29213; in data set [1]) were 4 µg/mL (≈ 9.58 µM) and 16 µg/mL (≈ 38.3 µM), respectively.
As to `COc1c(N2CCCC(=C(F)CN)C2)c(F)cc2c(=O)c3c(O)c(C(C)=O)sc3n(C3CC3)c12` [Compound 6, 2-acetyl-7-(3-(2-amino-1-fluoroethylidene)piperidin-1-yl)-9-cyclopropyl-6-fluoro-3-hydroxy-8-methoxythieno [2,3-b]quinolin-4(9H)-one], the MIC is 0.25 µg/mL (≈ 0.511 µM) in the data set on S. aureus ATCC 29213 and 0.5 µg/mL (≈ 1.02 µM) in data set [1].
For `COc1c(N2CC[C@@H]([C@H](C)NC(C)=O)C2)c(F)cc2c(=O)c3c(O)c(C(C)=O)sc3n(C3CC3)c12` [Compound 19, N-((S)-1-((R)-1-(2-acetyl-9-cyclopropyl-6-fluoro-3-hydroxy-8-methoxy-4-oxo-4,9-dihydrothieno[2,3-b]quinolin-7-yl)pyrrolidin-3-yl)ethyl) acetamide], the MIC was found to be 0.25 µg/mL (≈ 0.498 µM) in the data set on S. aureus ATCC 29213 and 0.5 µg/mL (≈ 0.997 µM) in data set [1].
For `COc1c(N2CC[C@@H](CNS(=O)(=O)c3cc(F)ccc3C)C2)c(F)cc2c(=O)c3c(O)c(C(C)=O)sc3n(C3CC3)c12` [Compound 16, (R)-N-((1-(2-acetyl-9-cyclopropyl-6-fluoro-3-hydroxy-8-methoxy-4-oxo-4,9-dihydrothieno [2,3-b]quinolin-7-yl)pyrrolidin-3-yl)methyl)-5-fluoro-2-methylbenzenesulfonamide] the same measures were 32 µg/mL (≈ 51.8 µM) and > 64 µg/mL.
